Experiment: Color toner: light fastness of image
Assay type: physicochemical
Settings: xenon light 85,000 lx, 5 days, dye remaining ratio
Experimental: A mixture of 3 parts by weight of each of the phthalocyanine compounds (Compounds 101, 102, 103 and 107) according to the invention and 100 parts by weight of a resin for toner (styrene-acrylate copolymer, trade name: Hymer TB-1000F, produced by Sanyo Chemical Industries, Ltd.) was pulverized in a ball mill and melt-blended by heating at 150° C. After cooling, the resulting solid was coarsely pulverized by a hammer mill and then finely pulverized by an air jet-type pulverizer. The particles were classified to select those having a particle size of 1 to 20 micrometer to prepare a toner. To 10 parts by weight of the toner, 900 parts by weight of carrier iron powder (trade name: FEV250/400, produced by Powdertech Co., Ltd.) was uniformly blended to prepare a developer. Each developer was prepared in the same manner as above except for using 3 parts by weight of dye or 6 parts by weight of pigment as a comparative coloring agent as shown in Table 7 below. Using the developer, duplicate was conducted by a dry type plain paper electrophotographic copying machine (trade name: NP-5000 produced by Canon Inc.).
For the evaluation, by the developer using the color toner containing the compound according to the invention, a reflection image and a transmission image were prepared on paper and OHP sheet according to the above-described image forming method, respectively. The evaluation was conducted in the following manner. A toner adhesion amount was in a range of 0.7±0.05 mg/cm^2 for the evaluation.
With the image formed, color tone and light fastness were evaluated. Regarding the color tone, the evaluation was visually conducted by a three-stage rating of best, good and poor. In Table 7, symbols ∘, Δ and × mean best color tone, good color tone and poor color tone, respectively. The light fastness was evaluated by measuring image density (Ci) just after the recording, irradiating the image with xenon light (85,000 1×) using Weatherometer (Atlas C. 165) for 5 days and then measuring again image density (Cf), and calculated a dye remaining ratio ([…]). The image density was measured by a reflection densitometer (X-Rite 310TR). In Table 7, symbols ∘, Δ and × mean the dye remaining ratio of 90% or more, the dye remaining ratio of less than 90% to 80% and the dye remaining ratio of less than 80%, respectively.

Molecule | Light Fastness
CNc1ccc(O)c2c1C(=O)c1c(O)ccc(NC)c1C2=O [Comparative Dye 3] | Δ (the dye remaining ratio of less than 90% to 80%)
Cc1ccc(Nc2ccc(Nc3ccc(C)cc3)c3c2C(=O)c2c(Nc4ccc(C)cc4)ccc(Nc4ccc(C)cc4)c2C3=O)cc1 [Comparative Dye 4] | Δ (the dye remaining ratio of less than 90% to 80%)
C.I. Solvent Blue 38 | ∘ (the dye remaining ratio of 90% or more)
C.I. Solvent Blue 70 | ∘ (the dye remaining ratio of 90% or more)
